Assays:
[1] = tested on: obesity model hamster fed on a high fat diet; assay: Effect of suppressing the body weight gain in the obesity model hamster fed on a high fat diet; assay type: in vivo, Syrian hamsters; conditions: for body weight gain rate on the 21st day: mixed diet of high fat diet + 2% test substance, compared with high-fat diet group (FIG. 1)
Protocol: 6 week old male Syrian hamsters (Japan SLC, Inc.) were bred at a temperature of 23±3° C. and a light-dark cycle of 12 hours on a free feeding of standard diet for 11 days, and the hamsters were divided into 4 groups, namely, standard forage group (Standard) (n=4), high-fat diet group (n=8), EPA group (HF+EPA-E) (n=8), and DHA group (HF+DHA-E) (n=7). The standard diet used was CLEA Rodent Diet CE-2 (4.8% fat) manufactured by CLEA Japan, Inc. and the high fat diet (HF) used was Hypercholesterolemic Hamster Diet (9% sugar and fat 21% fat) manufactured by Wilson. The effects of the EPA and DHA on the body weight gain were confirmed by using hamsters fed on a high fat diet (HF). During the feeding on the high fat diet, a mixed diet of high fat diet+2% EPA-E (comprising 98.24% EPA-E manufactured by Nippon Suisan Kaisha, Ltd.) was given to the EPA group, and a mixed diet of high fat diet+2% DHA-E (comprising 97.4% DHA-E manufactured by Equateq Ltd.) was given to the DHA group (with the diet changed once a day in the morning). The control group was given a high fat diet or a standard diet (comprising 4.8% fat) (with the diet changed once a day in the morning). The body weight was measured from the day of the start of the administration. The body weight gain rate on the 21st day was higher in the group fed on the high-fat diet group compared to the standard forage group, and the group fed on the high-fat diet was in the condition of obesity. […] This confirms that the action of suppressing the body weight gain (or reducing the body weight) of the EPA-E is realized by the action of suppressing (or reducing) the amount of fat, namely, the anti-obesity action.

plasma LDL-C = assay: Effects on LDL-C level in high fat diet hamster; assay type: in vivo, Syrian hamsters; conditions: high fat diet + 2% test substance, 21st day of the administration (FIG. 3)
Protocol: (§1) 6 week old male Syrian hamsters (Japan SLC, Inc.) were bred at a temperature of 23±3° C. and a light-dark cycle of 12 hours on a free feeding of standard diet for 11 days, and the hamsters were divided into 4 groups, namely, standard forage group (Standard) (n=4), high-fat diet group (n=8), EPA group (HF+EPA-E) (n=8), and DHA group (HF+DHA-E) (n=7). The standard diet used was CLEA Rodent Diet CE-2 (4.8% fat) manufactured by CLEA Japan, Inc. and the high fat diet (HF) used was Hypercholesterolemic Hamster Diet (9% sugar and fat 21% fat) manufactured by Wilson. The action of the EPA and the DHA on the LDL-C level was confirmed by using the hamsters fed on a high fat diet. Along with the experiment of the action of suppressing the body weight gain in Experimental Example 1, blood was collected at day 7, 14, and 21 after the starting of the administration, and plasma was separated by centrifugation. Plasma LDL-C concentration was measured by using a commercially available test reagent (Wako L-Type LDL-C manufactured by Wako Pure Chemical Industries).

CETP = assay: Effects on CETP activity value in high fat diet hamster; assay type: in vivo, Syrian hamsters; conditions: high fat diet + 2% test substance, 21st day of the administration (FIG. 4)
Protocol: as §1, with “CETP activity value” for “LDL-C level”, “CETP activity value” for “LDL-C concentration”, “a” for “a commercially available”, “(CETP activity assay kit” for “(Wako L-Type LDL-C”, “Bio Vision).” for “Wako Pure Chemical Industries).”

[2] = tested on: model mouse with obesity not associated with the enhancement of hepatic lipogenesis or fatty liver; conditions: model mouse continuously fed on a high-fat diet; cited from earlier work
[3] = tested on: model mouse with obesity associated with enhanced hepatic lipogenesis or fatty liver; conditions: model mouse continuously fed on a high-fat and high-sugar diet; cited from earlier work

Compound	body weight gain rate on the 21st day [1]	plasma LDL-C level (plasma LDL-C)	plasma CETP activity value (CETP)	suppression of body weight gain [2]	amount of fat in the epididymis on the 21st day ([1]; high fat diet + 2% test substance, 21st day (FIG. 2))	suppression of body weight gain [3]
CC/C=C\C/C=C\C/C=C\C/C=C\C/C=C\C/C=C\CCC(=O)OCC [DHA-E, ethyl docosahexaenoate]	approximately equal to that of the high-fat diet group	An action of increasing the plasma LDL-C level was found	increase in the CETP activity was confirmed			
CC/C=C\C/C=C\C/C=C\C/C=C\C/C=C\CCCC(=O)OCC [EPA-E, ethyl icosapentate]	lower than the control high-fat diet group	an action of suppressing the increase of the plasma LDL-C level was found	the action of suppressing the increase of the CETP activity was confirmed	ineffective	increase in the amount of fat was significantly suppressed	effective in suppressing the body weight gain

Reference: patent US9345681B2, “Anti-obesity agent comprising high-purity EPA” (MOCHIDA PHARMACEUTICAL CO., LTD., priority 2011, dated 2016)
